According to publication PMC7570844, “Skin Damages—Structure Activity Relationship of Benzimidazole Derivatives Bearing a 5-Membered Ring System” (Molecules, 2020):

Assays:
[1] = test system: herpes simplex virus-1 TK-KOS ACVr; experiment: microbe, parasite or virus in culture; format: cell-based; conditions: Human alphaherpesvirus 1, HEL, read-out: Antiviral EC50
[2] = test system: herpes simplex virus-1 (KOS); experiment: Antiviral activity in HEL cell cultures (CPE, MTS); format: cell-based; conditions: Human alphaherpesvirus 1, HEL cells
vaccinia virus = experiment: microbe, parasite or virus in culture; format: cell-based; conditions: Orthopoxvirus vaccinia, HEL, read-out: Antiviral EC50
[3] = test system: human embryonic lung (HEL) cell cultures
[4] = test system: herpes simplex virus-2 (G); experiment: Antiviral activity in HEL cell cultures (CPE, MTS); format: cell-based; conditions: Human alphaherpesvirus 2; Herpes simplex virus-2, HEL cells
[5] = Ferric reducing antioxidant power (FRAP) test; conditions: mean ± SEM
[6] = DPPH radical scavenging test; conditions: mean ± SEM
Adeno virus-2 = experiment: Antiviral activity in HEL cell cultures (CPE, MTS); format: cell-based; conditions: Adeno virus-2, HEL cells
Epidermophyton floccosum = experiment: Antidermatophyte plaque growth inhibition; format: cell-based; conditions: E. floccosum, 100 µg/mL, '+' has no key, read-out: Percent growth inhibition
Microsporum gypseum = experiment: Antidermatophyte plaque growth inhibition; format: cell-based; conditions: Nannizzia gypsea; M. gypseum, 100 µg/mL; '+' has no key; read-out: Percent growth inhibition
[7] = test system: vesicular stomatitis virus; experiment: microbe, parasite or virus in culture; format: cell-based; conditions: HeLa, read-out: Antiviral EC50
[8] = test system: human cervical carcinoma cells (HeLa); experiment: Cell proliferation inhibition
Coxsackie virus B4 = experiment: Antiviral activity in HeLa cell cultures (CPE, MTS); format: cell-based; conditions: Enterovirus B; Coxsackie virus B4, HeLa cells
[9] = UV filtering parameters of compounds in solution (MeOH, 290-400 nm)
Human Coronavirus (229E) = experiment: microbe, parasite or virus in culture; format: cell-based; conditions: HEL, read-out: Antiviral EC50
[10] = test system: human T-lymphocyte cells (CEM); experiment: Cell proliferation inhibition
HeLa cell cultures = conditions: human
[11] = test system: Respiratory syncytial virus; experiment: microbe, parasite or virus in culture; format: cell-based; conditions: human respiratory syncytial virus, HeLa cells, read-out: Antiviral EC50
[12] = test system: Trichophyton mentagrophytes; experiment: Antidermatophyte plaque growth inhibition; format: cell-based; conditions: T. mentagrophytes, 100 µg/mL, '+' has no key, read-out: Percent growth inhibition
Trichophyton tonsurans = experiment: Antidermatophyte plaque growth inhibition; format: cell-based; conditions: T. tonsurans, 100 µg/mL, '+' has no key, read-out: Percent growth inhibition
[13] = test system: HEK293T (Normal Kidney Epithelial Cells); experiment: Cell proliferation inhibition, non-cancer control cells; conditions: Homo sapiens, HEK-293T
Microsporum canis = experiment: Antidermatophyte plaque growth inhibition; format: cell-based; conditions: M. canis, 100 µg/mL, '+' has no key, read-out: Percent growth inhibition
[14] = test system: human melanoma cells (SK-Mel 5); experiment: Cell proliferation inhibition
[15] = test system: human pancreatic carcinoma cells (Mia Paca-2); experiment: Cell proliferation inhibition

Compound: Nc1nc2c(ncn2COCCO)c(=O)[nH]1 [Acyclovir, reference compound]
- EC50 [1]: 2 µM
- EC50 [2]: 0.6 µM
- EC50 (vaccinia virus): > 250 µM
- Cytotoxic concentration [3]: > 250 µM
- EC50 [4]: 0.6 µM

Compound: O=c1[nH]c(=O)n([C@H]2C[C@H](O)[C@@H](CO)O2)cc1/C=C/Br [Birivudin, Brivudin, reference compound]
- EC50 [1]: 0.1 µM
- EC50 [2]: 0.01 µM
- EC50 (vaccinia virus): 5.8 µM
- Cytotoxic concentration [3]: > 250 µM

Compound: O=C(O)/C=C/c1ccc(O)c(O)c1 [Caffeic acid, reference compound]
- FRAP [5]: 10156.12 ± 15.5 µmolTE/g
- DPPH (% Inhibition) ([6]; tested concentration 0.0105 mg/mL): 81.35 ± 0.35%

Compound: Nc1ccn(C[C@@H](CO)OCP(=O)(O)O)c(=O)n1 [Cidofovir, reference compound]
- EC50 [1]: 2.8 µM
- EC50 [2]: 4.5 µM
- EC50 (vaccinia virus): 50 µM
- Cytotoxic concentration [3]: > 250 µM
- EC50 [4]: 3.4 µM
- EC50 (Adeno virus-2): 10 µM

Compound: O=S(=O)(O)c1ccc2[nH]c(-c3ccco3)nc2c1 [Compound 8, 2-(furan-2-yl)-1H-benzimidazole-5-sulfonic Acid]
- inhibition at 100 µg/mL (Epidermophyton floccosum): < 0%
- EC50 [1]: > 100 µM
- inhibition at 100 µg/mL (Microsporum gypseum): 8 ± 2.44%
- FRAP [5]: <LOQ *
- EC50 [2]: > 100 µM
- DPPH (% Inhibition) ([6]; tested at 1 mg/mL): 10.96 ± 0.56%
- melting point: > 250 °C
- EC50 [7]: > 100 µM
- EC50 (vaccinia virus): > 100 µM
- IC50 [8]: ≥ 100 µM
- Cytotoxic concentration [3]: > 100 µM
- EC50 (Coxsackie virus B4): > 100 µM
- SPF [9]: 10.96±0.54
- UVA/UVB [9]: 0.29
- UVAPF [9]: 1.33±0.05
- λc (critical wavelength) [9]: 342 nm
- EC50 (Human Coronavirus (229E)): > 100 µM
- IC50 [10]: > 100 µM
- EC50 [4]: > 100 µM
- EC50 (Adeno virus-2): > 100 µM
- Cytotoxic concentration (HeLa cell cultures): > 100 µM
- EC50 [11]: > 100 µM
- inhibition at 100 µg/mL [12]: < 0%
- inhibition at 100 µg/mL (Trichophyton tonsurans): < 0%
- IC50 [13]: > 100 µM
- inhibition at 100 µg/mL (Microsporum canis): < 0%
- IC50 [14]: ≥ 100 µM
- IC50 [15]: ≥ 100 µM
